“Also recorded” adds a separate entry of the source.
How the values were obtained:
NANOLUC® enzyme = NANOLUC® enzyme (Oplophorus gracilirostris, UniProt Q9GV45, A31E/A60N/A81I/F95D/I117V/K70R/L54V/L99Q/M102K/N193R/P142E/Q151K/Q38R/Q45L/V71I/Y165I); assay: Inhibitor IC50 determination (NANOLUC enzyme, furimazine); format: biochemical; details: IC50 (uM), 0.4 ng/ml NANOLUC enzyme, final furimazine 10 uM (at Km)
[1] = biological target: T1, Nluc enzyme in REALTIME-GLO™ MT Cell Viability reagent (Oplophorus gracilirostris, UniProt Q9GV45, A31E/A60N/A81I/F95D/I117V/K70R/L54V/L99Q/M102K/N193R/P142E/Q151K/Q38R/Q45L/V71I/Y165I); assay: RealTime-Glo / Caspase-Glo multiplex in K562 cells; format: cell-based; details: Trail titration, 200 μM in CASPASE-GLO 3/7 reagent, 2 hrs RT
T1 construct: purchased Promega Corporation
T1 sequence (Q9GV45 28-196 with tags or gaps with the stated changes limits assumed): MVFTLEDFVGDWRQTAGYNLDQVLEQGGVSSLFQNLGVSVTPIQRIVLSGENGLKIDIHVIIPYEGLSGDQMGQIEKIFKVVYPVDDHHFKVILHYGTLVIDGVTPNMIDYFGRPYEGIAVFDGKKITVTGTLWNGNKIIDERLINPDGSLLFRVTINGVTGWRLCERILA
Experimental: K562 were plated into wells of a Corning 3707 assay plate in 20 μL RPMI media at 2000 cells/well and incubated overnight. A Trail titration was prepared in 10 μL RPMI media and added to cells. Then either 10 μL 4× REALTIME-GLO™ MT Cell Viability reagent (RTCV; Promega Corporation) or media (control) was added to each well. The reactions were incubated at 37° C./5% CO2 at various time points, and luminescence was measured on a Tecan M1000 Pro plate reader. At 5 hrs, 40 μL CASPASE-GLO® 3/7 detection reagent (Promega Corporation) was added with or without 200 μM JRW-0004. The reaction was incubated for 2 hrs at room temperature (RT), and luminescence was measured on the Tecan M1000 Pro plate reader.

purified Nluc enzyme = biological target: T2, purified Nluc enzyme (Oplophorus gracilirostris, UniProt Q9GV45, A31E/A60N/A81I/F95D/I117V/K70R/L54V/L99Q/M102K/N193R/P142E/Q151K/Q38R/Q45L/V71I/Y165I); format: biochemical; details: titration up to 100 μM final; RT 2 hrs; pro-substrate PBI-4442 + DTT
T2 construct: purchased Promega Corporation
T2 sequence (Q9GV45 28-196 with tags or gaps with the stated changes limits assumed): as above
Experimental: In a Corning 3570 assay plate, purified Nluc enzyme (Promega Corporation), 20 mM DTT, and an Nluc pro-substrate (PBI-4442, which is described in US Patent Publication No. 2013/0130289), which is converted to an Nluc substrate upon reduction with DTT, was added. Compound titrations of JRW-0004, JRW-0013, JRW-0006, JRW-0042, JRW-0138, and JRW-0147 were then made (1:2 serial dilution in PBS, 11 points plus no inhibitor control, starting at 200 μM; 100 μM final concentration in reaction). Compound titrations were added in equal volume to the wells of the assay plate. The reactions were incubated at RT for 2 hrs, and luminescence was measured on Tecan M1000 Pro plate reader. Half-maximal inhibitor (thienopyrrole compound) concentrations (IC50s) were determined using GraphPad Prism 6.03.

[2] = tested on: firefly luciferase, e.g., ULTRAGLO® luciferase; assay: Specificity of inhibition: firefly luciferase activity; format: biochemical; details: 1 μM luciferin in Luciferase Detection Reagent; RT 2 hrs
Experimental: The following example describes the specificity of disclosed thienopyrrole compounds, JRW-0004, JRW-0013, JRW-0006, JRW-0042, JRW-0138, and JRW-0147, to inhibit Nluc luciferase activity versus firefly luciferase activity, e.g., ULTRAGLO® luciferase. In a Corning 3570 assay plate, a solution containing 1 μM luciferin in Luciferase Detection Reagent (Promega Corporation V865/859) was added to the assay wells. An equal volume of titrations the thienopyrrole compounds, JRW-0004, JRW-0013, JRW-0006, JRW-0042, JRW-0138, and JRW-0147 were then added to the wells. The reactions were incubated at RT for 2 hrs, and luminescence was measured on Tecan M1000 Pro plate reader.

Nluc enzyme = assay: Multiplex RealTime-Glo / Caspase-Glo 3/7 in MCF7 cells; format: cell-based
Experimental: (§1) A) In a Corning 3570 assay plate, MCF7 cells were plated at 1,000 cells/well in 20 μL of cell culture media (EMEM supplemented with 0.01 mg/mL human recombinant insulin and 10% fetal bovine serum) and incubated in overnight. 10 μL of 4× REALTIME-GLO™ MT Cell Viability reagents (Promega Corporation) in media or 10 μL media only was added to the cells. 10 μL of 40 μM staurosporine in media or 10 μL media only (control) was added to the cells. The cells were incubated, and caspase activation monitored at 5.5 hrs post-reagent addition. To monitor caspase activation, 40 μL CASPASE-GLO® 3/7 Assay Reagent (Promega Corporation), either on its own (Caspase) or with 200 μM of JRW-0004, JRW-0013, or JRW-0042, was added. Reactions were incubated at RT, and luminescence was measured at 1 hr 10 min post-reagent addition on Tecan M1000 Pro plate reader.
(§2) When comparing the signal generated from the CASPASE-GLO® reagent in media only versus the signal generated in media containing REALTIME-GLO™ reagent, the signal is higher in the multiplex reaction.

Nluc luciferase = Nluc luciferase (Oplophorus gracilirostris, UniProt Q9GV45, A31E/A60N/A81I/F95D/I117V/K70R/L54V/L99Q/M102K/N193R/P142E/Q151K/Q38R/Q45L/V71I/Y165I); assay: Inhibition of purified Nluc, dose and time dependence; format: biochemical; details: pro-substrate PBI-4442, DTT, TERGITOL, RT, various time points
Sequence of Nluc luciferase (Q9GV45 28-196 with tags or gaps with the stated changes limits assumed): as above
Experimental: A solution of purified Nluc and an Nluc pro-substrate (PBI-4442, which is described in US 2013/0130289), which is converted to an Nluc substrate upon reduction with DTT, were prepared in PBS buffer, pH 7.5. A 40 mM solution of DTT in PBS, pH 7.5 containing 1% TERGITOL was also prepared. Titrations of the thienopyrrole compounds JRW-0004, WZ141-88, WZ141-86, WZ141-74, WZ141-84, WZ141-89, WZ141-90, and WZ141-91 in the buffer containing DTT and TERGITOL were then prepared. An equal volume of the Nluc/pro-substrate solution was added to the thienopyrrole compound titrations in wells of an assay plate. The reactions were incubated at RT, and luminescence was measured at various time points on the Tecan M100 Pro plate reader (integration time 200 ms). IC50 values were determined using GraphPad Prism 6.03.

Nluc = Nluc (Oplophorus gracilirostris, UniProt Q9GV45, A31E/A60N/A81I/F95D/I117V/K70R/L54V/L99Q/M102K/N193R/P142E/Q151K/Q38R/Q45L/V71I/Y165I); assay: Multiplex RealTime-Glo / Caspase-Glo 3/7 in MCF7 cells; format: cell-based; parameters: purchased Promega Corporation
Sequence of Nluc (Q9GV45 28-196 with tags or gaps with the stated changes limits assumed): as above
Experimental: as §1, §2

[3] = 10 μM Stauro vs Control, 200 μM compound
[4] = CASPASE-GLO 3/7 reagent with 200 μM compound, 1 hr 10 min

Sequence of NANOLUC® enzyme (Q9GV45 28-196 with tags or gaps with the stated changes limits assumed): as above

CCN(C(=O)Cn1c(C(=O)OC)cc2sccc21)c1cccc(C)c1 [JRW-0004, methyl 4-(2-(ethyl(m-tolyl)amino)-2-oxoethyl)-4H-thieno[3,2-b]pyrrole-5-carboxylate]
IC50 (NANOLUC® enzyme): 1.1 µM | Inhibition of Nluc enzyme in RealTime-Glo reagent (FIG. 1) [1]: can inhibit the Nluc enzyme | Inhibition of purified Nluc enzyme (FIG. 2) (purified Nluc enzyme): capable of inhibiting purified Nluc enzyme | Inhibition of firefly luciferase activity (FIG. 3) [2]: do not inhibit firefly luciferase activity; also recorded: did not inhibit the firefly luciferase activity | Fold Cont, Media only (Nluc enzyme; [3]): 5.89 | Avg (luminescence), Media only, 10 μM Stauro (Nluc enzyme; [4]): 54589 | Avg (luminescence), Media only, Control (Nluc enzyme; [4]): 9261 | Inhibition of Nluc luciferase, dose and time dependence (FIGS. 4-6) (Nluc luciferase): inhibit Nluc luciferase in a dose- and time-dependent manner | Fold Cont, Media containing RealTime-Glo (Nluc; [3]): 5.53 | Avg (luminescence), Media containing RealTime-Glo, 10 μM Stauro (Nluc; [4]): 50266 | Avg (luminescence), Media containing RealTime-Glo, Control (Nluc; [4]): 9090

— US10513694B2, “Thienopyrrole compounds and uses thereof” (PROMEGA CORPORATION, priority 2015, dated 2019)
